Test results from ChEMBL document CHEMBL5244204, “Drug discovery approaches targeting 5-lipoxygenase-activating protein (FLAP) for inhibition of cellular leukotriene biosynthesis” (Eur J Med Chem, 2018).

Legend:
[1] = biological target: T1, Arachidonate 5-lipoxygenase-activating protein (Homo sapiens, UniProt P20292); experiment: Displacement of [125I]-L-691831 from recombinant human FLAP expressed in Sf9 insect cells incubated for 2 hr by scintillation proximity assay
T1 sequence (P20292 whole entry): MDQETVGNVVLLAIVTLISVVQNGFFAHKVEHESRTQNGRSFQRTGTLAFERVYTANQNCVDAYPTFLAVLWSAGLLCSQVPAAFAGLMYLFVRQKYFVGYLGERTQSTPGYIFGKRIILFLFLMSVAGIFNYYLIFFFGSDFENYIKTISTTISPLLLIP

[2] = biological target: T2, Polyunsaturated fatty acid 5-lipoxygenase (Homo sapiens, UniProt P09917); experiment: Inhibition of 5-LOX in human PMNL cells assessed as inhibition of LTB4 formation preincubated for 5 mins followed by calcium ionophore A23187 addition and measured after 6 min by HPLC analysis; format: cell-based
T2 sequence (P09917 whole entry): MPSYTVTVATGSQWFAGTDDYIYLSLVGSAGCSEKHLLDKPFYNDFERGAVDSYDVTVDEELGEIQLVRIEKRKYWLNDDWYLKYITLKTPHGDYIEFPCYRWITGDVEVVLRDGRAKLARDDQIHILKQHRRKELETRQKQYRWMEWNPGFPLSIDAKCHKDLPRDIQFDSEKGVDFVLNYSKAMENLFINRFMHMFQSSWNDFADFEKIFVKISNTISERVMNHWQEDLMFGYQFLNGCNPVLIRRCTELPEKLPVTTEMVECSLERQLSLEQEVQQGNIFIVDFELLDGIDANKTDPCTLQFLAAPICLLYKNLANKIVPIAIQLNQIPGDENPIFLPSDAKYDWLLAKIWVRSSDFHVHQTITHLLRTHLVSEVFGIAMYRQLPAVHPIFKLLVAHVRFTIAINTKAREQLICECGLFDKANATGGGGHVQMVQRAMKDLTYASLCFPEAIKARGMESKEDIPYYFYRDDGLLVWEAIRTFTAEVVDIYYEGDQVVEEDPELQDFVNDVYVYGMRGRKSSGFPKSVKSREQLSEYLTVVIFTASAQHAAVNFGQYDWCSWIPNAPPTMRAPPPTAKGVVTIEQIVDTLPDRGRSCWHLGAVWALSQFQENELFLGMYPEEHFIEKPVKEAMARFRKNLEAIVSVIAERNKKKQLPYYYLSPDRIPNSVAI

[3] = biological target: T2, Polyunsaturated fatty acid 5-lipoxygenase; experiment: Inhibition of 5-LOX in human whole blood assessed as inhibition of LTB4 formation preincubated for 10 mins followed by calcium ionophore A23187 addition and measured after 30 min by RIA/RP--HPLC analysis; format: tissue-based
Homo sapiens = species: Homo sapiens; experiment: Inhibition of Leukotriene biosynthesis in human whole blood assessed as inhibition of LTB4 formation; format: functional
Rattus norvegicus [4] = experiment: In vivo inhibition of Leukotriene biosynthesis in anaphylaxis rat model assessed as reduction in LTB4 level at po dosed; format: functional
[5] = Inhibition of Leukotriene biosynthesis in calcium ionophore A23187 stimulated human PMNL cells assessed as inhibition of LTB4 formation by cellular assay; format: functional, cell-based
Rattus norvegicus [6] = experiment: Anti-inflammatory activity against anaphylaxis in peritoneal cavity of rat model assessed as reduction in LTB4 level at po dosed by ELISA; format: functional
[7] = biological target: T1, Arachidonate 5-lipoxygenase-activating protein; experiment: Inhibition of FLAP in human whole blood assessed as reduction of LTB4 formation preincubated with enzyme for 15 mins followed by calcimycin addition and measured after 30 mins by HTRF assay; format: tissue-based
[8] = biological target: T2, Polyunsaturated fatty acid 5-lipoxygenase; experiment: Inhibition of recombinant human 5-LO expressed in Escherichia coli JM109 using arachidonic acid as substrate incubated for 10 mins by HPLC analysis
[9] = biological target: T1, Arachidonate 5-lipoxygenase-activating protein; experiment: Inhibition of FLAP in human PMNL cells assessed as inhibition of 5-LO product LT formation preincubated for 15 mins followed by calcium ionophore A23187 addition and measured after 10 min by HPLC analysis; format: cell-based
[10] = biological target: T1, Arachidonate 5-lipoxygenase-activating protein; experiment: Inhibition of FLAP in human whole blood assessed as reduction in LTB4 level preincubated for 15 mins followed by calcium ionophore A23187 addition and measured after 30 min; format: tissue-based
[11] = biological target: T1, Arachidonate 5-lipoxygenase-activating protein; experiment: Inhibition of FLAP in human neutrophil assessed as reduction in all-trans isomers of LTB4 and 5-HETE formation using arachidonic acid as substrate preincubated with enzyme for 15 mins followed by substrate addition and A23187 measured after 10 mins by ELISA assay; format: cell-based
[12] = biological target: T1, Arachidonate 5-lipoxygenase-activating protein; experiment: Inhibition of FLAP in human monocyte assessed as reduction in all-trans isomers of LTB4 and 5-HETE formation preincubated with enzyme for 15 mins followed by A23187 addition and measured after 10 mins by ELISA assay; format: cell-based
[13] = biological target: T1, Arachidonate 5-lipoxygenase-activating protein; experiment: Inhibition of FLAP in human whole blood assessed as reduction in all-trans isomers of LTB4 and 5-HETE formation preincubated with enzyme for 15 mins followed by fMLP addition and measured after 15 mins by HPLC analysis; format: tissue-based
Prostaglandin E synthase = biological target: T3, Prostaglandin E synthase (Homo sapiens, UniProt O14684); experiment: Inhibition of mPGES-1 activity in IL-1beta human A549 microsome using PGH2 as substrate preincubated for 15 mins followed by substrate addition for 1 min by RP-HPLC analysis; format: microsomes
T3 sequence (O14684 whole entry): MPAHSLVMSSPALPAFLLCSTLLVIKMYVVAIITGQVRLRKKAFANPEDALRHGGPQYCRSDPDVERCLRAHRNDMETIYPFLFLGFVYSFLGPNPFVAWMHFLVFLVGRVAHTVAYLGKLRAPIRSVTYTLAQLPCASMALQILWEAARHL

[14] = Inhibition of Leukotriene biosynthesis in human PMNL cells preincubated for 2 mins followed by calcium ionophore A23187 addition and measured after 5 mins by radioimmunoassay; format: functional, cell-based
Rattus norvegicus [15] = experiment: In vivo inhibition of Leukotriene biosynthesis in pleural inflammation rat model assessed as reduction in LTB4 level at po dosed for 1 hr followed by calcium ionophore A-23187 administration and measured after 30 mins by enzyme immunoassay; format: functional; settings: time 1.5 hrs
[16] = Inhibition of Leukotriene biosynthesis in calcium ionophore A-23187 stimulated human PMNL cells assessed as inhibition of LTB4 formation by enzyme immunoassay; format: functional, cell-based
[17] = biological target: T4, Polyunsaturated fatty acid 5-lipoxygenase (Rattus norvegicus, UniProt P12527); experiment: Inhibition of 5-LOX in […] rat PMNL cells assessed as reduction in 5-LO product level incubated for 3 mins by scintillation counting method; format: cell-based
T4 sequence (P12527 whole entry): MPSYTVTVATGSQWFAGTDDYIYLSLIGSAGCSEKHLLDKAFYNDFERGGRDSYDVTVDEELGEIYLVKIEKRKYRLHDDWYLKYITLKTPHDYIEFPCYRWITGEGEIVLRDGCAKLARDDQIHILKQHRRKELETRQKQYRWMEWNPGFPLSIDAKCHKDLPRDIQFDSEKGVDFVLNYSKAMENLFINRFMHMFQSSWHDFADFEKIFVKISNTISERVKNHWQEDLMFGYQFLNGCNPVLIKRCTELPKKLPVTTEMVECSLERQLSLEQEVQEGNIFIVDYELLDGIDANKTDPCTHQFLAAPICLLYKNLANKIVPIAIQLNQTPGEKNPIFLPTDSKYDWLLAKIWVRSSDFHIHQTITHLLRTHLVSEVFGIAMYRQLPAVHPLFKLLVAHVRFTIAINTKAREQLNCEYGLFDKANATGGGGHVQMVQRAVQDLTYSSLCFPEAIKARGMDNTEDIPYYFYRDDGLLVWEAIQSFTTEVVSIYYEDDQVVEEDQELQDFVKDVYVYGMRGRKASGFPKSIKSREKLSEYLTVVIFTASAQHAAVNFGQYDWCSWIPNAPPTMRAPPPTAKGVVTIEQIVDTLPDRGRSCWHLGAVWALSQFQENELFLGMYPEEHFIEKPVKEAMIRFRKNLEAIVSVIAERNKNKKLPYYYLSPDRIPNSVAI

[18] = biological target: T1, Arachidonate 5-lipoxygenase-activating protein; experiment: Inhibition of FLAP in human PMNL cells assessed as reduction in all-trans isomers of LTB4 and 5-HETE formation preincubated with enzyme for 15 mins followed by Ca2+ ionophore-A23187 and measured after 10 mins by HPLC analysis; format: cell-based
[19] = biological target: T1, Arachidonate 5-lipoxygenase-activating protein; experiment: Inhibition of FLAP in human monocyte assessed as reduction in all-trans isomers of LTB4 and 5-HETE formation preincubated with enzyme for 15 mins followed by Ca2+ ionophore-A23187 and measured after 10 mins by HPLC analysis; format: cell-based

## Cc1ccn(-c2ccc(Cl)cc2-c2nc3cc(-c4cnc(N)nc4)ccc3n2C(C)(C)C)n1
[1]
  IC50: 0.7 nM

## O=C(O)[C@@H](c1ccc(OCc2ccc3ccccc3n2)cc1)C1CCCC1 [VELIFLAPON]
[2]
  IC50: 220 nM
[3]
  IC50: 11600 nM
Homo sapiens
  IC50: 6000 nM
Rattus norvegicus [4]
  ED50: 4 mg/kg

## CC(C)(/C=N/OCC(=O)O)Cc1c(SC(C)(C)C)c2cc(OCc3ccc4ccccc4n3)ccc2n1Cc1ccc(Cl)cc1
[5]
  IC50: 12 nM
Rattus norvegicus [6]
  ED50: 0.24 mg/kg

## CC(C)(C)n1c(-c2ccccc2C(=O)Nc2ccccn2)nc2cc(-c3cnc(N)nc3)ccc21
[7]
  IC50: 2700 nM

## CC1(C)Cc2c(-c3ccccc3)c(-c3ccc(Cl)cc3)c(CC(=O)O)n2C1 [LICOFELONE]
[8]
  IC50: > 10000 nM
[9]
  IC50: 1700 nM

## Nc1cnc(-c2ccc(C3CCC3)c(Oc3ncccn3)c2F)cn1
[10]
  IC50: 66 nM

## C/C(=N\O[C@H](c1ccc(OCc2ccc3ccccc3n2)cc1)C1CCCCC1)C(=O)[O-].[Na+]
Homo sapiens
  IC50: 870 nM
Rattus norvegicus [4]
  ED50: 0.4 mg/kg

## CNC(=O)c1ccc(F)cc1-c1nc2cc(-c3cnc(N)nc3)ccc2n1C(C)(C)C
[7]
  IC50: 130 nM

## CNC(=O)c1ccc(C#N)cc1-c1nc2cc(-c3cnc(N)nc3)ccc2n1C(C)(C)C
[7]
  IC50: 94 nM

## CC(C)(CO/N=C/C(=O)O)Cc1c(SC(C)(C)C)c2cc(OCc3ccc4ccccc4n3)ccc2n1Cc1ccc(Cl)cc1
[5]
  IC50: 21 nM
Rattus norvegicus [6]
  ED50: 0.9 mg/kg

## CC(C)Cc1ccc(C(C)c2nc3ccccc3n2Cc2ccccc2Cl)cc1 (stereo not drawn)
[11]
  IC50: 150 nM
[12]
  IC50: 40 nM
[13]
  IC50: 4800 nM
Prostaglandin E synthase
  IC50: 200 nM

## O=C(O)CSC(CCCc1ccccc1)(Cc1ccccc1)c1ccc(OCc2ccc3ccccc3n2)cc1 (stereo not drawn)
[14]
  IC50: 4 nM

## c1ccc(COCC(OCc2ccccc2)c2ccc(OCc3ccc4ccccc4n3)cc2)cc1 (stereo not drawn)
[14]
  IC50: 30 nM

## CC(CCC(=O)O)(c1ccc(OCc2ccc3ccccc3n2)cc1)c1ccc(OCc2ccc3ccccc3n2)cc1
Rattus norvegicus [15]
  ED50: 1.5 mg/kg
[16]
  IC50: 23 nM

## Nc1cnc(-c2ccc(-c3ccccc3S(N)(=O)=O)cc2F)cn1
[10]
  IC50: 390 nM

## O=C(O)CSC(CCCc1ccccc1)c1ccc(OCc2ccc3ccccc3n2)cc1 (stereo not drawn) [AZD-4769]
[17]
  IC50: 70 nM

## CC(C)(C)c1ccc(-c2cnc(N)cn2)c(F)c1
[10]
  IC50: 600 nM

## O=C(O)CSC(CCCc1ccc(Cl)cc1)c1ccc(OCc2ccc3ccccc3n2)cc1 (stereo not drawn)
[17]
  IC50: 20 nM

## O=C(O)[C@@H](c1ccc(OCc2ccc3ccccc3n2)cc1)C1CCCCCC1
[2]
  IC50: 42 nM
[3]
  IC50: 1100 nM

## O=C(O)c1noc(-c2ccc(OCc3ccc4ccccc4n3)cc2)c1-c1ccc(Cl)cc1
[18]
  IC50: 7 nM
[19]
  IC50: 7 nM
